Assay results as given in US20080166323A1, “Activators of Hexosamine Biosynthesis as Inhibitors of Injury Induced by Ischemia or Hermorrhagic Shock” (UAB RESEARCH FOUNDATION, priority 2004, published 2008).

How the values were obtained:
isolated rat hearts = assay: isolated heart model of ischemia and reperfusion; details: 5 mM, added 10 minutes prior to ischemia and in reperfusion buffer; 10 min global ischemia, 15 min reperfusion; n=3
Procedure: To determine whether glucosamine treatment was protective in an isolated heart model of ischemia and reperfusion, isolated rat hearts (n=3) were assessed for protection against damage utilizing an ischemia/reperfusion protocol that included 10 minutes of global ischemia followed by 15 minutes of reperfusion with oxygenated buffer. In the experimental group, 5 mM glucosamine was added to the buffer 10 minutes prior to the onset of ischemia and was also included in the reperfusion buffer.

perfused hearts = assay: calcium paradox in perfused hearts (Langendorff); design: species or system rat; details: 5-minute pretreatment of control hearts
Procedure: The effect of short-term hyperglycemia (2-5 days) on the calcium paradox was explored. The protocol (a 30-minute stabilization after hanging the heart on a Langendorff apparatus, a Ca^2+-free buffer for 10 min, a buffer containing 1.25 mM Ca^2+ buffer for 15 min) was initially applied to perfused hearts from control rats. When calcium was removed from the perfusate, the heart gradually ceased beating (FIG. 2A), although no protein loss from the heart was detected (FIG. 3C). […] The decrease in left ventricular […] pressure (LVDP) and an elevation in end diastolic pressure (EDP), as well as protein loss and blanching signaled the transition to a “stone heart” (Zimmerman, Cardiovasc Res (2000) 45(1):119-121) in hearts from all control animals examined.
Azaserine (AZA), the inhibitor of GFAT and HBP flux (Marshall, et al., J Biol Chem (1991) 266(8):4706-4712), negated the effects of hyperglycemia, restoring sensitivity to the paradox in 3 of 7 hearts (FIG. 2B). […] This decreased somewhat the protection seen with hyperglycemia, but made the reversal seen with azaserine more pronounced (FIGS. 2B and 3).
To confirm the involvement of the HBP in the protection due to hyperglycemia, a complementary series of experiments at a final Ca^2+ concentration of 1.25 mM were performed.
An independent mechanism of increasing metabolites in the HBP is to provide the heart with free fatty acids (Hawkins, et al., J Clin Invest (1997) 99(9):2173-2182). This occurs because of the “glucose-sparing” effect, a rapid block on the entry of glucose into the glycolytic pathway because of an inhibition of phosphofructokinase. […] In addition, SKF96365 (also known as 1-[β-[3-(4-methoxyphenyl)propoxy]-4-methoxyphenethyl]-1H-imidazole, HCl; available from Calbiochem, San Diego, Calif.) as an independent means of blocking the channels responsible for CCE was utilized (Putney, Capacitative Calcium Entry (1997) Austin: Landes Biomedical). This too was at least partially effective in 4 of 6 animals (FIG. 4).

O-GlcNAc on proteins = assay: CTD110 immunoblot of O-GlcNAc-containing proteins in isolated heart extracts; details: ten-minute perfusion, 5 mM, isolated hearts
Procedure: FIG. 8 is a photograph of a CTD110 immunoblot performed on extracts from isolated hearts following a 10-minute perfusion with buffer (control) or buffer containing 5 mM glucosamine (GlcNH2). The differences in the O-GlcNAc-containing protein pattern between the control and the GlcNH2 treated hearts are indicated by arrows.
In the experiments above with isolated hearts, glucosamine was protective after only a ten minute pre-incubation. While not wishing to be bound by theory, the mechanism believed to be responsible for the protection is an increase in concentration of an intracellular metabolite of the HBP, which results in an increase in protein-associated O-GlcNAc. […] Increases at ten minutes were 47%. With respect to the second point, experiments were performed in which a monoclonal antibody specific for O-GlcNAc on proteins (CTD110) (Corner, et al, Anal Biochem (2001) 293(2):169-177) was used in an immunoblotting protocol. The specificity of this antibody for O-GlcNAc-containing epitopes is verified in each experiment by the inclusion of 10 mM GlcNAc along with the CTD110 antibody on parallel samples. These samples show no staining (data not shown). CTD110 immunoblots were performed on extracts from isolated hearts following a ten-minute perfusion with buffer or buffer containing 5 mM glucosamine (FIG. 8). […]

Question: With `N[C@H]1C(O)O[C@H](CO)[C@@H](O)[C@@H]1O` (some centres unmarked) [glucosamine] as the compound, how does the “protection from ischemia/reperfusion as assessed by LVDP and EDP” value (isolated rat hearts) read?
Answer: Its value is “significant protection”.

Question: What about the “function prior to calcium removal” value (perfused hearts) of the same compound?
Answer: Its value is “did not alter function”.

Question: What about the “hearts with significant protection following calcium readdition” value (perfused hearts; final Ca2+ 1.25 mM) of the same compound?
Answer: The value was 7 of 7.

Question: What about the Protein loss inhibited (perfused hearts; final Ca2+ 1.25 mM, data not shown) of the same compound?
Answer: The Protein loss inhibited was 88%.

Question: What about the “O-GlcNAc-containing protein pattern vs buffer” value (O-GlcNAc on proteins) of the same compound?
Answer: Its value is “Clear differences”.
